Measured values: patent publication US8877802B2 (priority 2005, dated 2014)
Read-outs that look alike come from different tables or passages of the source.

Columns and labels:
[1] = test system: DA-depleted DAT-KO (DDD) mice; experiment: Akinesia test (forelimb steps in 30 s) in DDD mice; conditions: as E7; 1 h after second dose
[2] = test system: DA-depleted DAT-KO (DDD) mice; experiment: Grasping test of muscular rigidity in DDD mice; conditions: as E1; 1 h after second dose
[3] = test system: DA-depleted DAT-KO (DDD) mice; experiment: Catalepsy test (horizontal bar) in DDD mice; conditions: for Catalepsy (sec) 2 h: as E4, 1 h after second dose
[4] = test system: DA-depleted DAT-KO (DDD) mice; conditions: mouse, in vivo
[5] = test system: WT mice; experiment: Neurotoxic regimen of (±)-MDMA; conditions: (±)-MDMA 4 injections of 20 mg/kg IP, every 2 h; WT mice n=7
[6] = test system: DAT-KO mice; experiment: Neurotoxic regimen of (±)-MDMA, striatal tissue DA and 5-HT 7 d later; conditions: (±)-MDMA 4 injections of 20 mg/kg IP, every 2 h, DAT-KO mice n=7
[7] = test system: DAT-KO mice; experiment: In vivo microdialysis of striatal extracellular DA
Protocol: (§1) Neurochemical assessments. Striatal tissue contents of DA and frontal cortical tissue levels of NE were assessed using HPLC-EC (high performance liquid chromatography with electrochemical detection) as described. In vivo microdialysis measurements of striatal extracellular DA levels in freely moving mice were performed at least 24 h after implantation of a microdialysis probe as described previously. Dialysate samples were assayed for DA using HPLC-EC.

[8] = test system: DA-depleted DAT-KO (DDD) mice; experiment: Locomotor activity (forward locomotion, distance traveled) in DDD mice; conditions: for effect in tests of forward locomotion or akinesia and rigidity: NE- and 5-HT-related drugs, data not shown
[9] = test system: DA-depleted DAT-KO (DDD) mice; experiment: Ptosis score in DDD mice; conditions: cumulative dosing, scale 0-4, n=4
[10] = test system: 6-OH-DA-lesioned rats; conditions: 6-OH-DA-lesioned rats [85]; cited from earlier work
[11] = test system: haloperidol-treated rats; conditions: haloperidol-treated rats [84]; cited from earlier work
[12] = test system: MPTP-treated monkeys; conditions: MPTP-treated monkeys [64]; cited from earlier work
[13] = test system: DD mice; conditions: [76], cited from earlier work
[14] = molecular target: TA1 receptor (Rattus norvegicus, UniProt Q923Y9); conditions: reported in [42]; cited from earlier work
TA1 receptor, sequence (Q923Y9 whole entry): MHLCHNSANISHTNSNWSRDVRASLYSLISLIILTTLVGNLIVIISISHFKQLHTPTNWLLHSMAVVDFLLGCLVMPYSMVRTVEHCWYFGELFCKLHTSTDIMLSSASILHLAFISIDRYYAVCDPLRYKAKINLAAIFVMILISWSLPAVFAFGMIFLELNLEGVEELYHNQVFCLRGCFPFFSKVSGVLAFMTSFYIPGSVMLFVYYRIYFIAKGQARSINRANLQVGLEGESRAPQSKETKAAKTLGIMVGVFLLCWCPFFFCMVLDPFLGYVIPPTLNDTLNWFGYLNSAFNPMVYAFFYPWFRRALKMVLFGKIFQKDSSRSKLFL

[15] = test system: DAT-KO mice; experiment: Behavioral tests after αMT (akinesia, catalepsy, grasping, bracing, tremor, ptosis, righting reflex); conditions: αMT 250 mg/kg IP
[16] = test system: WT mice; experiment: Locomotor activity after αMT; conditions: αMT 250 mg/kg IP
[17] = test system: WT mice; experiment: Striatal tissue DA by HPLC-EC after αMT; type: in vivo; conditions: αMT 250 mg/kg IP; 4 h
Protocol: as §1

[18] = test system: DAT-KO mice; experiment: Striatal tissue DA by HPLC-EC after αMT; type: in vivo; conditions: αMT 250 mg/kg IP
Protocol: as §1

[19] = test system: WT mice; experiment: Frontal cortex tissue NE by HPLC-EC after αMT; type: in vivo; conditions: αMT 250 mg/kg IP; 8 h after treatment
Protocol: as §1

[20] = test system: DAT-KO mice; experiment: Frontal cortex tissue NE by HPLC-EC after αMT; type: in vivo; conditions: αMT 250 mg/kg IP; 8 h after treatment
Protocol: as §1

[21] = test system: WT mice; experiment: In vivo microdialysis of striatal extracellular DA; conditions: αMT 250 mg/kg IP; freely moving WT mice
Protocol: as §1

[22] = test system: DAT-KO mice; experiment: Locomotor activity after αMT
[23] = test system: DAT-KO mice; conditions: 100 mg/kg IP once every 3 d for 40 wk; cited from earlier work
[24] = DDD mice, drug 1 h after αMT 250 mg/kg IP

Which “Akinesia (steps) 2 h” value [1] does the source give for `CCNC(C)Cc1cccc(C(F)(F)F)c1` (racemic) [(±)-Fenfluramine] here?
Its value is 32 ± 6 steps.

And the “Grasping test (sec) 2 h” value [2]?
Its value is 8 ± 4 s.

And the “Catalepsy (sec) 2 h” value [3]?
The value was 138 ± 28 s.

With `CC(N)Cc1ccc2c(c1)OCO2.Cl` (racemic) [(±)-MDA, (±)-3,4-methylenedioxyamphetamine HCl] as the molecule, how does the “manifestations of akinesia and rigidity” value [4] read?
Its value is “effective in reducing manifestations of akinesia and rigidity”.

What does the source list for `CNC(C)Cc1ccc2c(c1)OCO2.Cl` (racemic) [(±)-MDMA, (±)-3,4-methylenedioxymethamphetamine HCl]?
lethality [5]: lethality of all treated WT mice; manifestations of akinesia and rigidity [4]: effective in reducing manifestations of akinesia and rigidity; striatal tissue 5-HT [6]: 0.40±0.02 ng/mg tissue; striatal tissue DA [6]: 0.58±0.04 ng/mg tissue

With `CNC(C)Cc1ccc2c(c1)OCO2.Cl` (single isomer, unassigned; (+)) [(+)-MDMA, (+)-3,4-methylenedioxymethamphetamine HCl] as the molecule, how does the “striatal extracellular DA in DDD mice” value ([7]; (+)-MDMA 100 mg/kg IP after αMT, in vivo microdialysis) read?
Its value is “did not produce any detectable increase in striatal extracellular DA”.

What about the “forward locomotion (distance traveled)” value ([8]; mouse, in vivo) of the same molecule?
Its value is “able to induce significant forward locomotion”.

What about the “potentiation of locomotor-stimulating effect of subthreshold L-DOPA/carbidopa” value ([8]; mouse, in vivo) of the same molecule?
The value was “potent synergistic effect”.

And the forward locomotion ([8]; mouse, in vivo, HCl)?
Its forward locomotion is “induced significant forward locomotion”.

What does the source list for `CCNC(C)Cc1cccc(C(F)(F)F)c1` (single isomer, unassigned; (-)) [(−)-Fenfluramine]?
Akinesia (steps) 2 h [1]: 28 ± 5 steps; Grasping test (sec) 2 h [2]: 4 ± 1 s; Catalepsy (sec) 2 h [3]: 104 ± 31 s

With `CC(N)Cc1ccc(Cl)cc1` (stereo not shown) [4-chloro-amphetamine] as the molecule, how does the “manifestations of akinesia and rigidity” value [4] read?
The value was “effective in reducing manifestations of akinesia and rigidity”.

For `COc1ccc2[nH]cc(CCN(C)C)c2c1` [5-methoxy-N,N-dimethyltryptamine], which “effect in tests of forward locomotion or akinesia and rigidity” value (shortened to “effect in tests”) ([8]; DDD mice) is on record?
The value was “none were effective”.

With `Cc1ccc2[nH]cc(CCN(C)C)c2c1` [5-methyl-N,N-dimethyltryptamine] as the molecule, how does the “effect in tests” value ([8]; DDD mice) read?
Its value is “none were effective”.

What does the source list for `CCN[C@@H](C)Cc1cccc(C(F)(F)F)c1` [(+)-Fenfluramine]?
Akinesia (steps) 2 h [1]: 21 ± 3 steps; Grasping test (sec) 2 h [2]: 9 ± 4 s; Catalepsy (sec) 2 h [3]: 113 ± 23 s

Which “Akinesia (steps) 2 h” value [1] does the source give for `CC(NC(C)(C)C)C(=O)c1cccc(Cl)c1` (stereo not shown) [Bupropion] here?
Its value is 29 ± 11 steps.

And the “Grasping test (sec) 2 h” value [2]?
Its value is 16 ± 3 s.

What about the “Catalepsy (sec) 2 h” value [3] of the same molecule?
The value was 123 ± 28 s.

Which “Akinesia (steps) 2 h” value [1] does the source give for `C[C@@H](N)Cc1ccccc1` [L-Amphetamine] here?
The value was 29 ± 5 steps.

What about the “Grasping test (sec) 2 h” value [2] of the same molecule?
Its value is 9 ± 3 s.

And the “Catalepsy (sec) 2 h” value [3]?
Its value is 99 ± 36 s.

With `N[C@@H](Cc1ccc(O)c(O)c1)C(=O)O` [L-DOPA] as the molecule, how does the “forward locomotion (distance traveled)” value [8, 24] read?
The value was “effectively restored locomotion”.

What does the source list for `N[C@H](C(=O)O)[C@H](O)c1ccc(O)c(O)c1` [L-DOPS, L-threo-3,4-dihydroxyphenylserine]?
ptosis score ([9]; 1 h after 100 mg/kg IP): 2.50±0.28; ptosis score ([9]; 1 h after 200 mg/kg IP): 0; ptosis score ([9]; 1 h after 400 mg/kg IP): 0; effect in tests of forward locomotion or akinesia and rigidity ([8]; DDD mice): none were effective

Which antiakinetic effects [10] does the source give for `CNC(C)Cc1ccc2c(c1)OCO2` (stereo not shown) [MDMA, 3,4-methylenedioxymethamphetamine] here?
Its antiakinetic effects is “antiakinetic effects”.

And the anticataleptic effect [11]?
The anticataleptic effect was “potent anticataleptic effect”.

And the antiakinetic effects [12]?
Its antiakinetic effects is “antiakinetic effects”.

Which “forward locomotion (distance traveled)” value [8, 24] does the source give for `C[C@]12N[C@H](Cc3ccccc31)c1ccccc12` [MK-801] here?
The value was “not effective”.

And the “forward locomotion (distance traveled)” value ([8]; DDD mice, drug 1 h after αMT 250 mg/kg IP, listed as ME-801)?
The value was “did not result in a significant increase in forward locomotion”.

And the “manifestations of akinesia and rigidity” value [4]?
Its value is “able to reduce rigidity”.

Which “effect in tests” value ([8]; DDD mice) does the source give for `COc1ccc2[nH]cc(C3=CCNCC3)c2c1` [RU24969] here?
The value was “none were effective”.

With `CN1CCc2cccc3c2[C@H]1Cc1ccc(O)c(O)c1-3` [apomorphine] as the molecule, how does the “forward locomotion (distance traveled)” value [8, 24] read?
The value was “induced locomotion”.

With `NCCc1ccccc1` [beta-phenylethylamine] as the molecule, how does the “forward locomotion (distance traveled)” value [8, 24] read?
Its value is “did not induce forward locomotion”.

And the “stereotypic reactions, such as headweaving and sniffing” value ([8]; DDD mice, high doses, with or without inhibition of MAO)?
Its value is “did promote weak stereotypic reactions”.

Which “forward locomotion (distance traveled)” value ([8]; mouse, in vivo) does the source give for `Cn1c(=O)c2c(ncn2C)n(C)c1=O` [caffeine] here?
The value was “not effective”.

For `Clc1cccc(Cl)c1N=C1NCCN1` [clonidine], which “effect in tests” value ([8]; DDD mice) is on record?
Its value is “none were effective”.

Which results are given for `C[C@H](N)Cc1ccccc1` [d-amphetamine]?
locomotor activation in DD mice ([13]; 5 mg/kg, first treatment): induced potent locomotor activation; locomotor activation in DD mice ([13]; second treatment 2 h later, same dose): failed to induce locomotion; effects on akinesia and rigidity after pretreatment with D1 and D2 DA antagonists [4]: did not prevent the effects; manifestations of akinesia and rigidity [4]: effective in reducing manifestations of akinesia and rigidity

Which “manifestations of akinesia and rigidity” value [4] does the source give for `CN[C@@H](C)Cc1ccccc1` [d-methamphetamine] here?
Its value is “effective in reducing manifestations of akinesia and rigidity”.

With `C#CCN(C)[C@H](C)Cc1ccccc1` [deprenyl] as the molecule, how does the “potentiation of locomotor-stimulating effect of subthreshold L-DOPA/carbidopa” value ([8]; DDD mice, L-DOPA/carbidopa 10/10 mg/kg IP 15 min after drug, distance traveled for 2 h) read?
The value was “failed to potentiate”.

Which “effect in tests” value ([8]; DDD mice) does the source give for `CNCCCN1c2ccccc2CCc2ccccc21` [desipramine] here?
The value was “none were effective”.

Which “effect in tests” value ([8]; DDD mice) does the source give for `CNCCC(Oc1ccc(C(F)(F)F)cc1)c1ccccc1` (stereo not shown) [fluoxetine] here?
The value was “none were effective”.

Which “forward locomotion (distance traveled)” value [8, 24] does the source give for `CN1Cc2c(N)cccc2C(c2ccccc2)C1` (stereo not shown) [nomifensine] here?
The value was “not effective”.

And the “activity at TA1 receptor” value [14]?
Its value is “can also potently activate TA1 receptor”.

What about the “manifestations of akinesia and rigidity” value [4] of the same molecule?
The value was “significantly reduced akinesia and rigidity”.

And the reversing catalepsy ([3]; DDD mice, cumulative treatment with 10 and 30 mg/kg IP)?
The reversing catalepsy was “not effective”.

With `CCCN1C[C@H](CSC)C[C@@H]2c3cccc4[nH]cc(c34)C[C@H]21` [pergolide] as the molecule, how does the “forward locomotion (distance traveled)” value [8, 24] read?
The value was “induced locomotion”.

What does the source list for `CC(C)(N)Cc1ccccc1` [phentermine]?
effects on akinesia and rigidity after pretreatment with D1 and D2 DA antagonists [4]: did not prevent the effects; manifestations of akinesia and rigidity [4]: effective in reducing manifestations of akinesia and rigidity

For `CC(N)(Cc1ccc(O)cc1)C(=O)O` (stereo not drawn) [αMT, α-methyl-p-tyrosine], which “akinesia, catalepsy, grasping, bracing, tremor and ptosis tests” value [15] is on record?
The value was “induced profound alterations”.

And the righting reflex [15]?
The righting reflex was “did not affect the righting reflex”.

What about the “total distance traveled for 210 min after drug administration” value [16] of the same molecule?
The value was 505±98 cm/210 min.

And the “depletion of striatal tissue DA” value [17]?
Its value is 60%.

What about the “duration of the striatal DA depletion” value [18] of the same molecule?
The value was “up to 16 h”.

And the “striatal DA remaining after depletion” value ([18]; 15 min)?
Its value is 5 % of control levels in DAT-KO mice.

And the “striatal DA remaining after depletion” value ([18]; DAT-KO mice, expressed against WT control)?
The value was “less than 0.2 % of WT control levels”.

And the “NE depletion in frontal cortex” value [19]?
Its value is “about 60%”.

And the “NE depletion in frontal cortex” value [20]?
Its value is “about 60%”.

What about the “effect on extracellular DA levels in striatum” value [21] of the same molecule?
The value was “only a partial decrease”.

And the “effect on extracellular DA levels in striatum” value ([7]; αMT 250 mg/kg IP, freely moving DAT-KO mice)?
Its value is “essentially eliminated extracellular DA levels”.

What about the “time to restoration of locomotor activity” value ([22]; after αMT 250 mg/kg IP) of the same molecule?
The value was 16 to 24 h.

What about the “total distance traveled for 210 min after drug administration” value ([22]; αMT 250 mg/kg IP) of the same molecule?
The value was 448±75 cm/210 min.

What about the “consequences of chronic treatment” value [23] of the same molecule?
The value was “showed no negative consequences”.
